Assay [1] has as its system symmetric di-methyl arginine in Z-138 cells. Put plainly: Z-138 Methylation Assay (In Cell Western for symmetric di-methyl arginine and DNA content). Type of assay: cell-based. The following applies: Homo sapiens, read-out: ICW EC50. The method, boiled down: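 Z-138 cells (50,000 cells/mL) treated with compound 96 h at 37 °C, then fixed and stained for symmetric di-methyl arginine (800 nm) with DRAQ5 DNA counterstain (700 nm) on Licor Odyssey.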

A further assay concerns Z-138 cell line. Put plainly: Z-138 Proliferation Assay (Cell Titer Glo, 5 days). The settings on record: Homo sapiens, read-out: Proliferation EC50. It counts as cell-based. The method, boiled down:
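Z-138 cells exposed 5 days at 37 °C, 5% CO2 to nine-point 3-fold dilutions (final top 20 μM, 0.2% DMSO), in triplicate. Viability read as ATP by CellTiter-Glo luminescence; IC50 from 4-parameter fit of normalized dose-response curves.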

Read-outs that look alike come from different tables or passages of the source. Some results are limits rather than exact numbers.

Take `CC(=O)N1CCC(Nc2cc(C(=O)NC[C@H](O)CN3CCc4ccccc4C3)ncn2)CC1` [Compound 208, (S)-6-((1-acetylpiperidin-4-yl)amino)-N-(3-(3,4-dihydroisoquinolin-2(1H)-yl)-2-hydroxypropyl)pyrimidine-4-carboxamide]: the EC50 in assay [1] is below 100 nM; with Z-138 cell line (120 h, Z-138 cells, 5 days), below 100 nM.
On to `O=C(NC[C@H](O)CN1CCc2ccccc2C1)c1cc(NC2CCNC2)ncn1` (stereo partly shown) [Compound 209], for which the EC50 in assay [1] was below 100 nM; in the assay on Z-138 cell line (120 h, Z-138 cells, 5 days) it was 10000 to 50000 nM.
With `CC(=O)N1CCC(Nc2cc(C(=O)NC[C@H](O)CN3CCc4ccccc4C3)ncn2)C1` (stereo partly shown) [Compound 210], the EC50 was below 100 nM in assay [1] and 101 to 1000 nM in the assay with Z-138 cell line (120 h, Z-138 cells, 5 days).
Taken in the same sequence, the figures for `O=C(NC[C@H](O)CN1CCc2ccccc2C1)c1cncc(NC2CCOC2)c1` (stereo partly shown) [Compound 211] were below 100 nM and below 100 nM.
The corresponding values for `C[C@@H]1COCCC1Nc1cccc(C(=O)NC[C@H](O)CN2CCc3ccccc3C2)c1` (stereo partly shown) [Compound 212] are below 100 nM and 101 to 1000 nM.
For the compound `C[C@H]1COCCC1Nc1cccc(C(=O)NC[C@H](O)CN2CCc3ccccc3C2)c1` (stereo partly shown) [Compound 213], the EC50 in assay [1] was below 100 nM; in the assay with Z-138 cell line (120 h, Z-138 cells, 5 days), 101 to 1000 nM.
The corresponding values for `CN(C)CCNc1cc(C(=O)NC[C@H](O)CN2CCc3ccccc3C2)ccn1` [Compound 214] are below 100 nM and 1000 to 10000 nM.
The corresponding values for `CC(=O)N1CCC(Nc2cccc(C(=O)NC[C@H](O)CN3CCc4ccccc4C3)c2)CC1` [Compound 215] are below 100 nM and below 100 nM.
As for `CS(=O)(=O)N1CCC(Nc2cccc(C(=O)NC[C@H](O)CN3CCc4ccccc4C3)c2)CC1` [Compound 216], the EC50 in assay [1] is below 100 nM; with Z-138 cell line (120 h, Z-138 cells, 5 days) it was 101 to 1000 nM.
Taken in the same sequence, the figures for `O=C(NC[C@H](O)CN1CCc2ccccc2C1)c1cccc(NC2CCN(CC(F)(F)F)CC2)c1` [Compound 217] were below 100 nM and 101 to 1000 nM.
Taken in the same sequence, the figures for `O=C(NC[C@@H](O)CN1CCc2ccccc2C1)c1ccc2ncccc2c1` [Compound 218] were 101 to 1000 nM and 10000 to 50000 nM.
The corresponding values for `Cc1ccc2cc(C(=O)NC[C@@H](O)CN3CCc4ccccc4C3)ccc2n1` [Compound 219, (R)—N-(3-(3,4-dihydroisoquinolin-2(1H)-yl)-2-hydroxypropyl)-2-methylquinoline-6-carboxamide] are 101 to 1000 nM and 10000 to 50000 nM.
As to `O=C(NC[C@H](O)CN1CCc2ccccc2C1)c1ccc2ncccc2c1` [Compound 220], the EC50 in assay [1] is below 100 nM; in the assay with Z-138 cell line (120 h, Z-138 cells, 5 days) it was 101 to 1000 nM.
With `Cc1ccc2cc(C(=O)NC[C@H](O)CN3CCc4ccccc4C3)ccc2n1` [Compound 221, (S)—N-(3-(3,4-dihydroisoquinolin-2(1H)-yl)-2-hydroxypropyl)-2-methylquinoline-6-carboxamide], the EC50 in assay [1] was below 100 nM; in the assay on Z-138 cell line (120 h, Z-138 cells, 5 days), 101 to 1000 nM.
Taken in the same sequence, the figures for `NC(=O)CNCCOc1cccc(C(=O)NCC(O)CN2CCc3ccccc3C2)c1` (stereo not shown) [Compound 222] were 101 to 1000 nM and above 20000 nM.
Taken in the same sequence, the figures for `CN1CCC(Nc2cc(C(=O)NC[C@H](O)CN3CCc4ccccc4C3)ccn2)CC1` [Compound 223] were below 100 nM and 1000 to 10000 nM.
Consider `O=C(NC[C@H](O)CN1CCc2ccccc2C1)c1ccnc(NC2CCN(CC(F)(F)F)CC2)c1` [Compound 224], for which the EC50 is below 100 nM in assay [1] and 101 to 1000 nM in the assay on Z-138 cell line (120 h, Z-138 cells, 5 days).
Taken in the same sequence, the figures for `CS(=O)(=O)N1CCC(Nc2cc(C(=O)NC[C@H](O)CN3CCc4ccccc4C3)ccn2)CC1` [Compound 225] were below 100 nM and below 100 nM.
As to `O=C(NC[C@H](O)CN1CCc2ccccc2C1)c1ccnc(NC2CCN(CC(F)(F)F)C2)c1` (stereo partly shown) [Compound 226], the EC50 is below 100 nM in assay [1] and 101 to 1000 nM in the assay with Z-138 cell line (120 h, Z-138 cells, 5 days).
Consider `CS(=O)(=O)N1CCC(Nc2cc(C(=O)NC[C@H](O)CN3CCc4ccccc4C3)ccn2)C1` (stereo partly shown) [Compound 227], for which the EC50 was below 100 nM in assay [1] and 101 to 1000 nM with Z-138 cell line (120 h, Z-138 cells, 5 days).
`CC(=O)N1CCC(Nc2cc(C(=O)NC[C@H](O)CN3CCc4ccccc4C3)ccn2)C1` (stereo partly shown) [Compound 228]: the EC50 in assay [1] is below 100 nM; in the assay with Z-138 cell line (120 h, Z-138 cells, 5 days), 101 to 1000 nM.
With `O=C(NC[C@H](O)CN1CCc2ccccc2C1)c1ccnc(OC2CCNCC2)c1` [Compound 229], the EC50 is below 100 nM in assay [1] and 1000 to 10000 nM in the assay with Z-138 cell line (120 h, Z-138 cells, 5 days).
As to `O=C(NC[C@H](O)CN1CCc2ccccc2C1)c1cc(NC2CCOC2)ncn1` (stereo partly shown) [Compound 230], the EC50 in assay [1] is below 100 nM; in the assay with Z-138 cell line (120 h, Z-138 cells, 5 days), 101 to 1000 nM.
`Cc1c(NC2CCOCC2)ncnc1C(=O)NC[C@H](O)CN1CCc2ccccc2C1` [Compound 231]: the EC50 in assay [1] was below 100 nM; with Z-138 cell line (120 h, Z-138 cells, 5 days), 1000 to 10000 nM.
Taken in the same sequence, the figures for `CN(C[C@H](O)CN1CCc2ccccc2C1)C(=O)c1cc(NC2CCOCC2)ncn1` [Compound 232] were 101 to 1000 nM and 1000 to 10000 nM.
The corresponding values for `CNCCN(C)c1cc(C(=O)NC[C@H](O)CN2CCc3ccccc3C2)ccn1` [Compound 233] are 101 to 1000 nM and 1000 to 10000 nM.
Taken in the same sequence, the figures for `CN(C)CCOc1cc(C(=O)NC[C@H](O)CN2CCc3ccccc3C2)ccn1` [Compound 234] were below 100 nM and 1000 to 10000 nM.
As for `O=C(NC[C@H](O)CN1CCc2ccccc2C1)c1ccnc(NCC2CCNCC2)c1` [Compound 235], the EC50 in assay [1] was 101 to 1000 nM; in the assay on Z-138 cell line (120 h, Z-138 cells, 5 days) it was above 20000 nM.
Take `O=C(NC[C@H](O)CN1CCc2ccccc2C1)c1ccnc(NCC2CCCNC2)c1` (stereo partly shown) [Compound 236]: the EC50 in assay [1] was 101 to 1000 nM; in the assay with Z-138 cell line (120 h, Z-138 cells, 5 days) it was 1000 to 10000 nM.
On to `O=C(NC[C@H](O)CN1CCc2ccccc2C1)c1ccnc(NCC2CCCCN2)c1` (stereo partly shown) [Compound 237], for which the EC50 in assay [1] is below 100 nM; with Z-138 cell line (120 h, Z-138 cells, 5 days), 1000 to 10000 nM.
The corresponding values for `O=C(NC[C@H](O)CN1CCc2ccccc2C1)c1ccnc(NCC2CNCCO2)c1` (stereo partly shown) [Compound 238] are 101 to 1000 nM and 10000 to 50000 nM.
Taken in the same sequence, the figures for `CN1CCC(Nc2cccc(C(=O)NC[C@H](O)CN3CCc4ccccc4C3)c2)CC1` [Compound 239] were below 100 nM and 1000 to 10000 nM.
The corresponding values for `O=C(NC[C@H](O)CN1CCc2ccccc2C1)c1c[nH]c2ccccc12` [Compound 240] are 101 to 1000 nM and above 20000 nM.
For the compound `O=C(NC[C@H](O)CN1CCc2ccccc2C1)c1cccc2[nH]cnc12` [Compound 241], the EC50 in assay [1] was in the range of 101 to 1000 nM; in the assay on Z-138 cell line (120 h, Z-138 cells, 5 days), 1000 to 10000 nM.
Take `O=C(NC[C@H](O)CN1CCc2ccccc2C1)c1n[nH]c2ccccc12` [Compound 242]: the EC50 in assay [1] lay within 101 to 1000 nM; in the assay on Z-138 cell line (120 h, Z-138 cells, 5 days), 1000 to 10000 nM.
Taken in the same sequence, the figures for `O=C(NC[C@H](O)CN1CCc2ccccc2C1)c1ccc2c(c1)CCO2` [Compound 243] were 101 to 1000 nM and 1000 to 10000 nM.
The corresponding values for `O=C(NC[C@H](O)CN1CCc2ccccc2C1)c1ccc2c(c1)OCO2` [Compound 244] are 101 to 1000 nM and 1000 to 10000 nM.
Taken in the same sequence, the figures for `O=C(NC[C@H](O)CN1CCc2ccccc2C1)c1cnc2ccccc2n1` [Compound 245] were 101 to 1000 nM and 10000 to 50000 nM.
On to `Cn1cc(C(=O)NC[C@H](O)CN2CCc3ccccc3C2)c2ccccc21` [Compound 246], for which the EC50 in assay [1] was 101 to 1000 nM; in the assay on Z-138 cell line (Z-138, 120 h), 1000 to 10000 nM.
As for `O=C(NC[C@H](O)CN1CCc2ccccc2C1)c1ccc2c(c1)CCCC2` [Compound 247], the EC50 in assay [1] was 101 to 1000 nM; with Z-138 cell line (120 h, Z-138 cells, 5 days) it was 1000 to 10000 nM.
Taken in the same sequence, the figures for `O=C(NC[C@H](O)CN1CCc2ccccc2C1)c1csc2ccccc12` [Compound 248] were 101 to 1000 nM and 1000 to 10000 nM.
Taken in the same sequence, the figures for `O=C(NC[C@H](O)CN1CCc2ccccc2C1)c1cccc2c1OCCO2` [Compound 249] were 101 to 1000 nM and 10000 to 50000 nM.
The corresponding values for `COc1ccc2oc(C(=O)NC[C@H](O)CN3CCc4ccccc4C3)cc2c1` [Compound 250] are below 100 nM and 1000 to 10000 nM.
As for `COc1ccc2cc(C(=O)NC[C@H](O)CN3CCc4ccccc4C3)ccc2c1` [Compound 251], the EC50 in assay [1] was below 100 nM; with Z-138 cell line (120 h, Z-138 cells, 5 days), 1000 to 10000 nM.
Taken in the same sequence, the figures for `CC(=O)N(C)CCN1CCN(Cc2cccc(C(=O)NCC(O)CN3CCc4ccccc4C3)c2)CC1` (stereo not shown) [Compound 252] were 101 to 1000 nM and 1000 to 10000 nM.
Take `CN1CCN(Cc2cccc(C(=O)NCC(O)CN3CCc4ccccc4C3)c2)CC1CO` (stereo not shown) [Compound 253]: the EC50 was 101 to 1000 nM in assay [1] and 1000 to 10000 nM with Z-138 cell line (120 h, Z-138 cells, 5 days).
The corresponding values for `CN1CCC(Nc2cc(C(=O)NC[C@H](O)CN3CCc4ccccc4C3)ccn2)C1` (stereo partly shown) [Compound 255] are below 100 nM and 1000 to 10000 nM.
In the case of `O=C(NC[C@H](O)CN1CCc2ccccc2C1)c1cc(OC2CCOCC2)ncn1` [Compound 256], the EC50 in assay [1] was below 100 nM; in the assay with Z-138 cell line (120 h, Z-138 cells, 5 days) it was 1000 to 10000 nM.
The corresponding values for `CS(=O)(=O)N1CCC(Nc2cc(C(=O)NC[C@H](O)CN3CCc4ccccc4C3)ncn2)C1` (stereo partly shown) [Compound 257] are below 100 nM and 1000 to 10000 nM.
Taken in the same sequence, the figures for `O=C(NC[C@H](O)CN1CCc2ccccc2C1)c1cc(OC2CCNCC2)ncn1` [Compound 258] were 101 to 1000 nM and 10000 to 50000 nM.
Taken in the same sequence, the figures for `O=C(NC[C@H](O)CN1CCc2ccccc2C1)c1cncc(NC2CCNC2)c1` (stereo partly shown) [Compound 259] were 101 to 1000 nM and above 20000 nM.
Consider `O=C(NC[C@H](O)CN1CCc2ccccc2C1)c1cncc(OC2CCNCC2)c1` [Compound 260], for which the EC50 in assay [1] is 101 to 1000 nM; with Z-138 cell line (120 h, Z-138 cells, 5 days) it was above 20000 nM.
Take `CN(c1cc(C(=O)NC[C@H](O)CN2CCc3ccccc3C2)ncn1)C1CCOCC1` [Compound 261]: the EC50 in assay [1] is below 100 nM; in the assay on Z-138 cell line (120 h, Z-138 cells, 5 days), 1000 to 10000 nM.

The values above are taken from US10307413B2, “Tetrahydro- and dihydro-isoquinoline PRMT5 inhibitors and uses thereof” (Epizyme, Inc., priority 2013, dated 2019).
